Measured values published in ChEMBL document CHEMBL1132747, “Development of plasmin and plasma kallikrein selective inhibitors and their effect on M1 (melanoma) and HT29 cell lines” (Bioorg Med Chem Lett, 2000).
pIC50: −log10 of the molar value.

What was measured:
[1] = Inhibitory activity of compound was evaluated against thrombin-fibrinogen (Fg)
[2] = Inhibitory activity of compound was evaluated against thrombin-S-2238
[3] = Inhibitory activity of compound was evaluated against plasma kallikrein-S-2302; assay type: cell-free
[4] = Inhibitory activity of compound was evaluated against plasmin-fibrin (Fn)
[5] = Inhibitory activity of compound was evaluated against urokinase-S-2444; conditions: for pIC50: read-out: IC50
Plasminogen [6] = target: T1, Plasminogen (Homo sapiens, UniProt P00747); test: Inhibitory activity of compound was evaluated against plasmin
[7] = Inhibitory activity of compound was evaluated against thrombin-fibrinogen (Fg); not detectable
Plasminogen [8] = target: T1, Plasminogen; test: Inhibitory activity of compound was evaluated against plasmin; not detectable
[9] = Inhibitory activity of compound was evaluated against thrombin-S-2238; not detectable
[10] = Inhibitory activity of compound was evaluated against plasma kallikrein-S-2302; not detectable; assay type: cell-free
[11] = Inhibitory activity of compound was evaluated against plasmin-fibrin (Fn); not detectable
[12] = Inhibitory activity of compound was evaluated against urokinase-S-2444; not detectable

T1 sequence (P00747 97-580 limits assumed): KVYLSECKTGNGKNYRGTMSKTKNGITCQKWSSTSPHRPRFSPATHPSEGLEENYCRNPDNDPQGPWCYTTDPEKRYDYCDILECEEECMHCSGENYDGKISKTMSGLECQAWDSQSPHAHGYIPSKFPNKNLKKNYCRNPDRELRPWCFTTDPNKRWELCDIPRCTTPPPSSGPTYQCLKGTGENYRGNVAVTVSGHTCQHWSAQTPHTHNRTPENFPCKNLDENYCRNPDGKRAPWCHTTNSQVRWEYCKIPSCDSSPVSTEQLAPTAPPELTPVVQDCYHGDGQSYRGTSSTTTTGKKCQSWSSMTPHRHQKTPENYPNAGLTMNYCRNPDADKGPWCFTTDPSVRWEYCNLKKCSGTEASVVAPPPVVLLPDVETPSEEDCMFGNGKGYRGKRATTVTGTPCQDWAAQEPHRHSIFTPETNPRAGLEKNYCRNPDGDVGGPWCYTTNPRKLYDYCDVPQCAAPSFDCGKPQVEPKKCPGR
T1 sequence (P00747 581-810 limits assumed): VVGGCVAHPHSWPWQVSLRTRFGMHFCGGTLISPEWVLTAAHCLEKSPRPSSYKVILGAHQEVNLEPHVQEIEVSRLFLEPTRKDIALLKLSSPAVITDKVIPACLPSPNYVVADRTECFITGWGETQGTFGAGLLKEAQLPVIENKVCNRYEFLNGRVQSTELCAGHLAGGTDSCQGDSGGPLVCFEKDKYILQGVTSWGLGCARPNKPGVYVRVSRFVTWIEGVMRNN

| SMILES | pIC50 [1] | pIC50 [2] | pIC50 [3] | pIC50 [4] | pIC50 [5] | pIC50 (Plasminogen [6]) | also measured |
| --- | --- | --- | --- | --- | --- | --- | --- |
| CCCCCCCCOC(=O)[C@H]1CC[C@H](CNC(=O)C(Cc2ccc(OC(=O)OCc3ccccc3Br)cc2)NC(=O)[C@H]2CC[C@H](CN)CC2)CC1 (some centres not stated) | < 5.00 | < 4.30 | 4.35 | 6.25 | < 4.30 | 5.60 |  |
| CC(=O)c1ccc(NC(=O)C(Cc2ccc(OC(=O)OCc3ccccc3Br)cc2)NC(=O)[C@H]2CC[C@H](CN)CC2)cc1 (some centres not stated) |  |  | 6.43 |  |  | 6.64 |  |
| Cc1nc(C)c(CCCNC(=O)C(Cc2ccc(OC(=O)OCc3ccccc3Br)cc2)NC(=O)[C@H]2CC[C@H](CN)CC2)nc1O (some centres not stated) |  |  |  | 6.41 | 4.27 |  | pIC50 ([7]; read-out: IC50): < 3.60; pIC50 (Plasminogen [8]; read-out: IC50): 6.13; pIC50 ([9]; read-out: IC50): 3.31; pIC50 ([10]; read-out: IC50): 4.44 |
| CCCCCCCCNC(=O)C(Cc1ccc(OC(=O)OCc2ccccc2Br)cc1)NC(=O)[C@H]1CC[C@H](CN)CC1 (some centres not stated) | < 4.60 | < 4.30 | 4.80 | 6.64 | < 4.30 | 6.10 |  |
| CC(C)CCNC(=O)C(Cc1ccc(OC(=O)OCc2ccccc2Br)cc1)NC(=O)[C@H]1CC[C@H](CN)CC1 (some centres not stated) | < 4.00 | 4.15 | 5.68 | 7.25 | 3.59 | 6.34 |  |
| CCCCCCCCNC(=O)C(Cc1ccc(OCc2ccncc2)cc1)NC(=O)[C@H]1CC[C@H](CN)CC1 (some centres not stated) | < 4.00 | < 3.40 | 4.52 | 6.44 | 5.28 | 6.28 |  |
| NC[C@H]1CC[C@H](C(=O)NC(Cc2ccc(Oc3ncccn3)cc2)C(=O)Nc2cccc(C(=O)O)c2)CC1 (some centres not stated) | < 3.00 | < 3.00 | 6.15 | 4.54 | 3.19 | 4.49 |  |
| NC[C@H]1CC[C@H](C(=O)NC(Cc2ccccc2)C(=O)Nc2ccc(CC(=O)O)cc2)CC1 (some centres not stated) | < 3.00 | < 3.00 | 5.89 | 3.46 | 3.46 | 3.21 |  |
| Cc1nc(Cc2ccccc2)c(O)nc1Cc1ccccc1 |  |  |  |  |  |  | IC50 [11]: Not detectable; IC50 [7]: Not detectable; IC50 (Plasminogen [8]): Not detectable; IC50 [9]: Not detectable; IC50 [12]: Not detectable; IC50 [10]: Not detectable |
| Cc1nc(Cc2ccccc2)c(O)nc1CCCCNC(=O)c1cccs1 |  |  |  |  |  |  | IC50 [11]: Not detectable; IC50 [7]: Not detectable; IC50 (Plasminogen [8]): Not detectable; IC50 [9]: Not detectable; IC50 [12]: Not detectable; IC50 [10]: Not detectable |
| Cc1nc(CCC(=O)OCc2ccccc2)c(O)nc1CCCCNC(=O)OCc1ccccc1 |  |  |  |  |  |  | IC50 [11]: Not detectable; IC50 [5]: Not detectable; IC50 [7]: Not detectable; IC50 (Plasminogen [8]): Not detectable; IC50 [9]: Not detectable; IC50 [10]: Not detectable |
